Measured values reported in ChEMBL document CHEMBL1142291, “A novel bicyclic hexapeptide, RA-XVIII, from Rubia cordifolia: structure, semi-synthesis, and cytotoxicity” (Bioorg Med Chem Lett, 2008).
≈ marks a conversion by molar mass, not a printed value.

Each compound was assayed on P388 (assay: Cytotoxicity against mouse P388 cells).
Assay type: functional, cell-based

SMILES	IC50
COc1ccc(C[C@H]2C(=O)N[C@@H](C)C(=O)N(C)[C@H]3Cc4ccc(cc4)Oc4cc(cc(O)c4OC)C[C@@H](C(=O)N[C@H](C)C(=O)N[C@@H](C)C(=O)N2C)N(C)C3=O)cc1	0.012 µg/mL (≈ 0.0153 µM)
COc1ccc(C[C@H]2C(=O)N[C@@H](C)C(=O)N(C)[C@H]3Cc4ccc(cc4)Oc4cc(ccc4O)C[C@@H](C(=O)N[C@H](C)C(=O)N[C@@H](C)C(=O)N2C)N(C)C3=O)cc1 [DEOXYBOUVARDIN]	0.014 µg/mL (≈ 0.0185 µM)
COc1ccc(C[C@H]2C(=O)N[C@@H](C)C(=O)N(C)[C@H]3Cc4ccc(cc4)Oc4cc(cc([N+](=O)[O-])c4OC)C[C@@H](C(=O)N[C@H](C)C(=O)N[C@@H](C)C(=O)N2C)N(C)C3=O)cc1	0.01 µg/mL (≈ 0.0123 µM)
COc1ccc(C[C@H]2C(=O)N[C@@H](C)C(=O)N(C)[C@H]3Cc4ccc(cc4)Oc4cc(cc([N+](=O)[O-])c4O)C[C@@H](C(=O)N[C@H](C)C(=O)N[C@@H](C)C(=O)N2C)N(C)C3=O)cc1	0.014 µg/mL (≈ 0.0175 µM)
COc1ccc(C[C@H]2C(=O)N[C@@H](C)C(=O)N(C)[C@H]3Cc4ccc(cc4)Oc4cc(c(O)cc4OC)C[C@@H](C(=O)N[C@H](C)C(=O)N[C@@H](C)C(=O)N2C)N(C)C3=O)cc1	0.093 µg/mL (≈ 0.118 µM)
COc1ccc(C[C@H]2C(=O)N[C@@H](C)C(=O)N(C)[C@H]3Cc4ccc(cc4)Oc4cc(ccc4OC)C[C@@H](C(=O)N[C@H](C)C(=O)N[C@@H](C)C(=O)N2C)N(C)C3=O)cc1	0.003 µg/mL (≈ 0.00389 µM)
COc1ccc(C[C@H]2C(=O)N[C@@H](C)C(=O)N(C)[C@H]3Cc4ccc(cc4)Oc4cc(c(N)cc4OC)C[C@@H](C(=O)N[C@H](C)C(=O)N[C@@H](C)C(=O)N2C)N(C)C3=O)cc1	0.7 µg/mL (≈ 0.891 µM)
COc1ccc(C[C@H]2C(=O)N[C@@H](C)C(=O)N(C)[C@H]3Cc4ccc(cc4)Oc4cc(cc(N)c4OC)C[C@@H](C(=O)N[C@H](C)C(=O)N[C@@H](C)C(=O)N2C)N(C)C3=O)cc1	0.0071 µg/mL (≈ 0.00903 µM)
COc1ccc(C[C@H]2C(=O)N[C@@H](C)C(=O)N(C)[C@H]3Cc4ccc(cc4)Oc4cc(c([N+](=O)[O-])cc4OC)C[C@@H](C(=O)N[C@H](C)C(=O)N[C@@H](C)C(=O)N2C)N(C)C3=O)cc1	0.056 µg/mL (≈ 0.0686 µM)
